In ChEMBL document CHEMBL6096713, “Tetrazole Is a Novel Zinc Binder Chemotype for Carbonic Anhydrase Inhibition” (ACS Med Chem Lett, 2025):

How the values were obtained:
Carbonic anhydrase 12 = Carbonic anhydrase 12 (Homo sapiens, UniProt O43570)
Description: Inhibition of human recombinant carbonic anhydrase 12 assessed as inhibition constant incubated for 15 mins by stopped-flow technique

Carbonic anhydrase 9 = Carbonic anhydrase 9 (Homo sapiens, UniProt Q16790)
Description: Inhibition of human recombinant carbonic anhydrase 9 assessed as inhibition constant incubated for 15 mins by stopped-flow technique

Carbonic anhydrase 1 = Carbonic anhydrase 1 (Homo sapiens, UniProt P00915)
Description: Inhibition of human recombinant carbonic anhydrase I assessed as inhibition constant incubated for 15 mins by stopped-flow technique

Carbonic anhydrase 2 = Carbonic anhydrase 2 (Homo sapiens, UniProt P00918)
Description: Inhibition of human recombinant carbonic anhydrase 2 assessed as inhibition constant incubated for 15 mins by stopped-flow technique

Chain of Carbonic anhydrase 12 (O43570 whole entry): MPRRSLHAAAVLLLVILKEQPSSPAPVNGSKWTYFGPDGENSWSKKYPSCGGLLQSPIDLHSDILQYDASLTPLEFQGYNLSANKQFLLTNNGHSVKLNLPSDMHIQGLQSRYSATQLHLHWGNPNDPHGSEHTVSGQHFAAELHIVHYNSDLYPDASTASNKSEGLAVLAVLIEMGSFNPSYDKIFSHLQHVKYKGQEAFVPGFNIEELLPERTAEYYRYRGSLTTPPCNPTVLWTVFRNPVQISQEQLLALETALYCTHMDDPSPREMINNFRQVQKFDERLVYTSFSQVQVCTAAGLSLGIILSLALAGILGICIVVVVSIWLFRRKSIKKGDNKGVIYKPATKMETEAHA
Chain of Carbonic anhydrase 1 (P00915 whole entry): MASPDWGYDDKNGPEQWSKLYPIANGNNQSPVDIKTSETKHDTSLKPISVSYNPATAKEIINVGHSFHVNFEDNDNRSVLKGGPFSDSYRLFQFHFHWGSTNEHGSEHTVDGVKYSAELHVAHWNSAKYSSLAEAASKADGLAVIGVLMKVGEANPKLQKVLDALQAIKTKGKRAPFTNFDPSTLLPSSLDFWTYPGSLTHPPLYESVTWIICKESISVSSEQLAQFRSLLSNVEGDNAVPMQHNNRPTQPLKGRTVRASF

**Q.** For `O=C(O)Cc1nnn[nH]1`, which Ki (Carbonic anhydrase 12) is on record?
**A.** 8.21 µM

**Q.** And the Ki (Carbonic anhydrase 9)?
**A.** 7.68 µM

**Q.** What about the Ki (Carbonic anhydrase 1) of the same compound?
**A.** 4.21 µM

**Q.** And the Ki (Carbonic anhydrase 2)?
**A.** 5.97 µM
